Type in all cases: in vivo
Assay [1] deals with giant foxtail (Setaria faberii). Put plainly: Test A postemergence. Conditions: Setaria faberi, post-emergence, 240 h, 125 g ai/ha, Postemergence; visual injury after approximately 10 d; 0 to 100 scale where 0 is no effect and 100 is complete control; read-out: Plant response rating, Foxtail, Giant. A digest of the protocol:
(§1)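 Visual injury scores from 0, no effect, to 100, complete control, were assigned versus untreated controls roughly 10 d after treatment in the greenhouse. Test chemicals, formulated with surfactant in a non-phytotoxic solvent, were applied to planted seeds as a preemergence soil spray or postemergence to one- to two-leaf plants 2 to 10 cm tall, in loam–sand soil.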

For assay [2], the system named is pigweed (Amaranthus retroflexus). As to the kind of experiment: Test A postemergence. As to conditions: Amaranthus retroflexus, post-emergence, 240 h, 125 g ai/ha, Postemergence; visual injury after approximately 10 d; 0 to 100 scale where 0 is no effect and 100 is complete control; read-out: Plant response rating, Pigweed. In short, it runs like this: as §1
Assay [3] deals with Galium (catchweed bedstraw, Galium aparine). Put plainly: Test A postemergence. Conditions: Galium, post-emergence, 240 h, 125 g ai/ha, Postemergence; visual injury after approximately 10 d; 0 to 100 scale where 0 is no effect and 100 is complete control; read-out: Plant response rating, Galium. In short, it runs like this:
as §1

In assay [4] the test system is Kochia (Kochia scoparia). Put plainly: Test A postemergence. As to conditions: Bassia scoparia, post-emergence, 240 h, 125 g ai/ha, Postemergence; visual injury after approximately 10 d; 0 to 100 scale where 0 is no effect and 100 is complete control; read-out: Plant response rating, Kochia. A digest of the protocol:
as §1

For assay [5], the system named is wheat (Triticum aestivum). Put plainly: Test A postemergence. Conditions: Triticum aestivum, post-emergence, 240 h, 125 g ai/ha, Postemergence; visual injury after approximately 10 d; 0 to 100 scale where 0 is no effect and 100 is complete control; read-out: Plant response rating, Wheat. In short, it runs like this:
as §1

For assay [6], the system named is sedge, umbrella (small-flower umbrella sedge, Cyperus difformis). Put plainly: Test B flooded paddy test. As to conditions: Cyperus difformis, Flood, 250 g ai/ha; scale of 0 to 100 where 0 is no effect and 100 is complete control; read-out: Sedge, Umbrella plant response rating. A digest of the protocol:
(§2)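 Visual ratings (0 none to 100 complete control) are relative to untreated plants, taken 13–15 d after treatment in a greenhouse. Test material went straight into floodwater standing 3 cm above the soil, kept constant, on plants at the 2-leaf stage.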

A further assay deals with rice (Oryra sativa). Put plainly: Test B flooded paddy test. As to conditions: Oryza sativa, Flood, 250 g ai/ha; scale of 0 to 100 where 0 is no effect and 100 is complete control; read-out: Rice plant response rating. A digest of the protocol: as §2
The test system of assay [7] is ducksalad (Heteranthera limosa). As to the kind of experiment: Test B flooded paddy test. Conditions: Heteranthera limosa, Flood, 250 g ai/ha; scale of 0 to 100 where 0 is no effect and 100 is complete control; read-out: Ducksalad plant response rating. A digest of the protocol: as §2
Assay [8] relates to barnyardgrass (Echinochloa crus-galli). As to the kind of experiment: Test B flooded paddy test. As to conditions: Echinochloa crus-galli, Flood, 250 g ai/ha; scale of 0 to 100 where 0 is no effect and 100 is complete control; read-out: Barnyardgrass plant response rating. A digest of the protocol:
as §2

Assay [9] relates to giant foxtail (Setaria faberii). Put plainly: Test A preemergence. As to conditions: Setaria faberi, pre-emergence, 240 h; for pest or weed control at 125 g/ha: 125 g ai/ha, preemergence, 0 to 100 scale where 0 is no effect and 100 is complete control, read-out: Foxtail, Giant plant response rating; for pest or weed control at 500 g/ha: 500 g ai/ha, Preemergence, visual injury vs untreated controls after approximately 10 d, read-out: Foxtail, Giant plant response rating (0 to 100 scale where 0 is no effect and 100 is complete control). A digest of the protocol: as §1

Assay [10] deals with pigweed (Amaranthus retroflexus). Put plainly: Test A preemergence. As to conditions: Amaranthus retroflexus, pre-emergence, 240 h; for pest or weed control at 125 g/ha: 125 g ai/ha, preemergence, 0 to 100 scale where 0 is no effect and 100 is complete control, read-out: Pigweed plant response rating; for pest or weed control at 500 g/ha: 500 g ai/ha, Preemergence, visual injury vs untreated controls after approximately 10 d, read-out: Pigweed plant response rating (0 to 100 scale where 0 is no effect and 100 is complete control).

The subject of assay [11] is ragweed (common ragweed, Ambrosia elatior). Put plainly: Test A preemergence. As to conditions: Ambrosia artemisiifolia, pre-emergence, 240 h; for pest or weed control at 125 g/ha: 125 g ai/ha, preemergence, 0 to 100 scale where 0 is no effect and 100 is complete control, read-out: Ragweed plant response rating; for pest or weed control at 500 g/ha: 500 g ai/ha, Preemergence, visual injury vs untreated controls after approximately 10 d, read-out: Ragweed plant response rating (0 to 100 scale where 0 is no effect and 100 is complete control). In short, it runs like this: as §1

Assay [12] concerns barnyardgrass (Echinochloa crus-galli). Put plainly: Test A preemergence. As to conditions: Echinochloa crus-galli, pre-emergence, 240 h; for pest or weed control at 125 g/ha: 125 g ai/ha, preemergence, 0 to 100 scale where 0 is no effect and 100 is complete control, read-out: Barnyardgrass plant response rating; for pest or weed control at 500 g/ha: 500 g ai/ha, Preemergence, visual injury vs untreated controls after approximately 10 d, read-out: Barnyardgrass plant response rating (0 to 100 scale where 0 is no effect and 100 is complete control). A digest of the protocol: as §1

The test system of assay [13] is Kochia (Kochia scoparia). Put plainly: Test A preemergence. As to conditions: Bassia scoparia, pre-emergence, 240 h; for pest or weed control at 125 g/ha: 125 g ai/ha, preemergence, 0 to 100 scale where 0 is no effect and 100 is complete control, read-out: Kochia plant response rating; for pest or weed control at 500 g/ha: 500 g ai/ha, Preemergence, visual injury vs untreated controls after approximately 10 d, read-out: Kochia plant response rating (0 to 100 scale where 0 is no effect and 100 is complete control). A digest of the protocol: as §1

The test system of assay [14] is ryegrass, Italian (Italian ryegrass, Lolium multiflorum). Put plainly: Test A preemergence. Conditions: Lolium multiflorum, pre-emergence, 240 h; for pest or weed control at 125 g/ha: 125 g ai/ha, preemergence, 0 to 100 scale where 0 is no effect and 100 is complete control, read-out: Ryegrass, Italian plant response rating; for pest or weed control at 500 g/ha: 500 g ai/ha, Preemergence, visual injury vs untreated controls after approximately 10 d, read-out: Ryegrass, Italian plant response rating (0 to 100 scale where 0 is no effect and 100 is complete control). A digest of the protocol: as §1

For the compound `CN1CC[C@H](c2cccc(Cl)c2)[C@@H](C(=O)Nc2ccccc2F)C1=O` [Compound 922], the pest or weed control at 125 g/ha was determined as 50% in [1]; 0% in assay [2]; 0% in [3]; 0% in the assay with Kochia (Kochia scoparia) [4]; 90% in assay [9]; 0% in assay [10]. Further, the pest or weed control at 125 g/ha turned out to be 0% in assay [11], 60% in assay [12], 0% in the assay with Kochia (Kochia scoparia) [13] and 20% in [14]. The plant injury at 125 g/ha in assay [5] came out at 0%. Moreover, the pest or weed control at 250 g/ha (in assay [6]; in the assay with rice (Oryra sativa); in [7]; in [8]) was 0% in each case. The pest or weed control at 500 g/ha in assay [9] is 90%; in assay [10] it was 0%; in assay [11], 0%; in assay [12] it was 80%; in the assay on Kochia (Kochia scoparia) [13], 0%; in [14], 40%.

Consider `COc1c(F)ccc([C@H]2CNC(=O)[C@@H]2C(=O)Nc2ccccc2S(C)(=O)=O)c1Cl` [Compound 916], for which the pest or weed control at 125 g/ha in assay [1] is 0%; in assay [2], 0%; in assay [3], 30%; in the assay with Kochia (Kochia scoparia) [4], 0%; in assay [9], 70%; in assay [10], 0%. For the same compound, the pest or weed control at 125 g/ha in assay [11] was 0%; in assay [12], 30%; in the assay with Kochia (Kochia scoparia) [13], 40%; in assay [14], 0%. The plant injury at 125 g/ha in assay [5] is 0%. The pest or weed control at 250 g/ha was 0% in assay [6], 0% with rice (Oryra sativa), 100% in assay [7] and 0% in [8]. Further, the pest or weed control at 500 g/ha stood at 80% in [9]; 20% in assay [10]; 70% in assay [11]; 80% in [12]; 60% in the assay with Kochia (Kochia scoparia) [13]; 30% in [14].

Values taken from US12077503B2, “Substituted cyclic amides and their use as herbicides” (FMC CORPORATION, priority 2015, dated 2024).
